{
  "source": "patent EP0749423B1",
  "about": "“PIPERIDINES AND PYRROLIDINES” (NOVO NORDISK A/S, priority 1994, dated 1995)",
  "key": {"[1]": {"test_system": "cultured liver cells", "assay": "Glucose production from cultured rat hepatocytes (basal and glucagon stimulated glycogenolysis)", "format": "cell-based", "settings": "Hepatocyte; for activity at 32 µM / activity at 50 µM: 70 min, glucose in medium after 70 minutes; for activity at 32 µM: test compound 32µM; for activity at 50 µM: test compound 50µM", "experimental": "During the last 24 hours, the hepatocytes were cultured in the presence of high levels of insulin (5 nM) and glucose (15 mM), which result in the incorporation of glucose into glycogen. Therefore, at the time of the experiment, the cells mimic livers from fed animals. Experiments were initiated after 72 hours of culture by 2 times wash of cells and addition of a 20 mM HEPES experimental buffer including balanced salts, but without glucose. The test compound was added simultaneously with the experimental buffer. To some cultures, glucagon (0.5 nM) was added after 10 minutes in order to stimulate glucose production from liver cells. The glucose released into the media, reflecting the glucose production of the liver cells, was measured 70 minutes after the start of the experiment and standardized to cellular DNA content."}, "[2]": {"biological_target": "T1, liver α-1,6-glucosidase (Homo sapiens, UniProt P35573)", "T1 construct": "from tissue", "T1 sequence (P35573 whole entry)": "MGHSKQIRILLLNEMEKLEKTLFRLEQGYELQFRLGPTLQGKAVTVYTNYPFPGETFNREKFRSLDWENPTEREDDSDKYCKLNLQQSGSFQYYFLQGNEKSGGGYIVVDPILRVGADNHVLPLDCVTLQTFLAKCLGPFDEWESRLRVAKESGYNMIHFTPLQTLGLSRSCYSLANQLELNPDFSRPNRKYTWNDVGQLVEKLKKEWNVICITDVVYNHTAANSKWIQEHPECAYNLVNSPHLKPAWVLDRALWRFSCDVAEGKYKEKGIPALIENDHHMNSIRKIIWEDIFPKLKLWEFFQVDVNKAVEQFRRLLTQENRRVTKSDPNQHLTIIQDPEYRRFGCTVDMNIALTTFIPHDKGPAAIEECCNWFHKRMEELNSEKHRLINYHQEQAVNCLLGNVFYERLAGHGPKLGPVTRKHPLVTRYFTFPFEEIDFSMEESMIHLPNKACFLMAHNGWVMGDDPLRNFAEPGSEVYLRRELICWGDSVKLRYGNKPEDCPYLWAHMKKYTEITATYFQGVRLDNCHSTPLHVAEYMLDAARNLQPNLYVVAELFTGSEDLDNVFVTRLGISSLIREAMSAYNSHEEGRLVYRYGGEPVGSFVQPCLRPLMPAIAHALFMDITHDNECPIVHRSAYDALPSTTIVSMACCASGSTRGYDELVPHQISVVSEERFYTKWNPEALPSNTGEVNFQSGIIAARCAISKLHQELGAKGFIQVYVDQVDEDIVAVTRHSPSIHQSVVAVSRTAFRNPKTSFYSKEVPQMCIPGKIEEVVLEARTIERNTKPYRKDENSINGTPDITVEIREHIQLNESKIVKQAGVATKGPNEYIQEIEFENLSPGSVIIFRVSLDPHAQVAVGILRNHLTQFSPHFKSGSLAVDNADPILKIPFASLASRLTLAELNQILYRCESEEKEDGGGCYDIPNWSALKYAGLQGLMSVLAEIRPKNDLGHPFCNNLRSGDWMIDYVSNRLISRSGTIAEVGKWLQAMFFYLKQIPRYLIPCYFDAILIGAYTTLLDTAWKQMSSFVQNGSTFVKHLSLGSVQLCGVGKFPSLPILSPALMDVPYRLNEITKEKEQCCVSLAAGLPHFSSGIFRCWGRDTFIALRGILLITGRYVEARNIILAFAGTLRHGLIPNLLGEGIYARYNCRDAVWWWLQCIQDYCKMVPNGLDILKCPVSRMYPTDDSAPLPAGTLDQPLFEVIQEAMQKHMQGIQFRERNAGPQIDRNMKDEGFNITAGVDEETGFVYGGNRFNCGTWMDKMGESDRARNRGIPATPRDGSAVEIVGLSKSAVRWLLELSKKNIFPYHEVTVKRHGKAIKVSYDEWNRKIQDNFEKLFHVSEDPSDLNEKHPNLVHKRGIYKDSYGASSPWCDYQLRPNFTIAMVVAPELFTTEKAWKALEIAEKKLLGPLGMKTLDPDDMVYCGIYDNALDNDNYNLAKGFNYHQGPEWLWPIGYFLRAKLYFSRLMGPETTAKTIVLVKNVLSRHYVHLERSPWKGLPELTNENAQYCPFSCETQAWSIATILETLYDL", "assay": "Glycogen debranching enzyme activity (Brown and Brown method)", "format": "biochemical", "settings": "read-out: I.C.50 liver α-1,6-glucosidase"}, "[3]": {"biological_target": "Phosphorylase", "settings": "read-out: I.C.50 Phosphorylase; phosphorylase purchased from Sigma or extracted from rat livers"}, "[4]": {"settings": "relative to basal glucose production (no addition with glucagon = 283%), read-out: Glucose production With glucagon (0.5nM)"}, "[5]": {"settings": "basal, without glucagon, read-out: I.C.50 Liver cell glucose production: Basal"}, "[6]": {"settings": "read-out: I.C.50 Liver cell glucose production: Glucagon stimulated"}},
  "note": "Where two headings read alike, the source gives them in different places.",
  "data": [
    {"smiles": "OC[C@H]1CNC[C@@H](O)[C@@H]1O", "note": "[Example 1, (3R,4R,5R)-3,4-dihydroxy-5-hydroxymethylpiperidine]", "values": [
      {"measurement": "activity at 32 µM", "setting": "[1]; relative to basal glucose production (no addition = 100 %), standardized to DNA, read-out: Glucose production Without glucagon", "value": 17, "unit": "%"},
      {"measurement": "activity at 32 µM", "setting": "[1]; [4]", "value": 32, "unit": "%"},
      {"measurement": "IC50", "setting": "[1]; [5]", "value": 1300, "unit": "nM"},
      {"measurement": "IC50", "setting": "[1]; [6]", "value": 1600, "unit": "nM"},
      {"measurement": "IC50", "setting": "[2]", "value": 77000, "unit": "nM"}
    ]},
    {"smiles": "OC[C@H]1NC[C@H](O)[C@@H](O)[C@@H]1O", "note": "[1-deoxynojirimycin]", "values": [
      {"measurement": "activity at 50 µM", "setting": "[1]; relative to basal glucose production (no addition = 100 %), read-out: Glucose production Without glucagon", "value": 89, "unit": "%"},
      {"measurement": "activity at 50 µM", "setting": "[1]; [4]", "value": 237, "unit": "%"},
      {"measurement": "IC50", "setting": "[1]; [5]", "value": "> 100000", "unit": "nM"},
      {"measurement": "IC50", "setting": "[1]; [6]", "value": "> 100000", "unit": "nM"},
      {"measurement": "IC50", "setting": "[3]", "value": "> 200000", "unit": "nM"},
      {"measurement": "IC50", "setting": "[2]", "value": 2400, "unit": "nM"}
    ]}
  ]
}
